Test results published in a compilation of properties of binary mixtures (doi:10.1021/acs.jpcb.7b06452).

Assay: xn = mol fraction of the nth substance listed
Conditions: 101 kPa

CC(=O)[O-].CCCC[P+](CCCC)(CCCC)CCCC + CC(=O)[O-].CCCC[n+]1ccn(C)c1
viscosity [mPa·s]
Conditions	313.15 K	323.15 K	333.15 K	343.15 K	353.15 K
x2 = 0	–	–	67.1	43.1	29.1
x2 = 0.5018	323	–	96.7	59.2	38.7
x2 = 0.751	–	133	78	49.6	33.2

CCCC[n+]1ccn(C)c1.O=S(=O)([N-]S(=O)(=O)C(F)(F)F)C(F)(F)F + CC(=O)[O-].CCCC[n+]1ccn(C)c1
x2 = 0
Conditions	viscosity [mPa·s]
293.15 K	62.9
303.15 K	40.8
313.15 K	28.1
323.15 K	20.29
333.15 K	15.34
343.15 K	11.98

CC(=O)[O-].CCCC[n+]1ccn(C)c1 + CCCC[n+]1ccn(C)c1.O=S(=O)([N-]S(=O)(=O)C(F)(F)F)C(F)(F)F
viscosity [mPa·s]
Conditions	293.15 K	298.15 K	303.15 K	313.15 K	323.15 K	333.15 K	343.15 K	353.15 K
x1 = 0.2512	101.2	78	61.3	–	27.9	20.19	15.46	–
x1 = 0.5001	178	132	–	60.7	39.5	27.4	19.92	15.15
x1 = 0.7497	316	223	–	91.3	–	36.9	25.7	18.76
